According to patent US20250361230A1, “LATS Inhibitors and Uses Thereof” (The USA, as Represented by the Secretary, Dept. of Heath …, priority 2022, published 2025):

Key:
Format in all cases: biochemical
LATS2 = target: T1, LATS2 (Homo sapiens, UniProt Q9NRM7); assay: RBC HotSpot kinase assay (33P-ATP, P81 filter-binding), LATS2; details: Table 28, biochemical kinase assay; read-out: LATS2 IC50
T1 sequence (Q9NRM7 1-1088): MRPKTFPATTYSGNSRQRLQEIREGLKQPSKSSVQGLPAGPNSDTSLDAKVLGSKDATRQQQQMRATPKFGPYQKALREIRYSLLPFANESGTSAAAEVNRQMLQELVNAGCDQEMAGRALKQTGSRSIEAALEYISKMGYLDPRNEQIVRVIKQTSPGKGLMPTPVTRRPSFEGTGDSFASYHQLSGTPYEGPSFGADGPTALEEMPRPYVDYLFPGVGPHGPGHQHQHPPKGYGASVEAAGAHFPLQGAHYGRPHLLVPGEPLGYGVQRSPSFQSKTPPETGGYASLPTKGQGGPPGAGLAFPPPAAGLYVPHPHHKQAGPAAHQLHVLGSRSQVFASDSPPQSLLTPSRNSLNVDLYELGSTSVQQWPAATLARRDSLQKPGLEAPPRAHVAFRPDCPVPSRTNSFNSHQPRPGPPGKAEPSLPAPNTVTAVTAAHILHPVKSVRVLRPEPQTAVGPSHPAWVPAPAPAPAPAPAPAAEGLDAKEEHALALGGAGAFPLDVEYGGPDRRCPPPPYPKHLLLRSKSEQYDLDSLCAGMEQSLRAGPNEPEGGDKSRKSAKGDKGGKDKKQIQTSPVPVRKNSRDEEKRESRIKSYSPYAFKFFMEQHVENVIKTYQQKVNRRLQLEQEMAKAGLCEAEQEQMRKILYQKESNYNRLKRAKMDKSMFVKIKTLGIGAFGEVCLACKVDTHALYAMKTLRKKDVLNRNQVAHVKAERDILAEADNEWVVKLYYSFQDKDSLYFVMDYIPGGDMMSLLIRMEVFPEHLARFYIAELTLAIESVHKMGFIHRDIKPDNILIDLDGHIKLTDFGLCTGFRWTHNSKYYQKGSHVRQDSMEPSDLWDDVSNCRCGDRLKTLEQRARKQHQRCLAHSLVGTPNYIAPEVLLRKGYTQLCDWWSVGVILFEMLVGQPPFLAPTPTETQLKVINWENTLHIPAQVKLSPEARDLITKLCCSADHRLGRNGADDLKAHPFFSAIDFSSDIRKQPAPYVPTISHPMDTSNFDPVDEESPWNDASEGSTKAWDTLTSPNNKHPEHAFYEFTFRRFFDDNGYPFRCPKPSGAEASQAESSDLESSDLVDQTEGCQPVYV
Protocol: (§1) Biochemical kinase inhibitory data was obtained for various exemplary compounds prepared according to the above.
(§2) The reagents used are as follows: Base Reaction buffer; 20 mM Hepes (pH 7.5), 10 mM MgCl2, 1 mM EGTA, 0.01% Brij35, 0.02 mg/ml BSA, 0.1 mM Na3VO4, 2 mM DTT, […]. Required cofactors were added individually to each kinase reaction.
(§3) The reaction procedure was as follows: • 1) Substrates were prepared in freshly prepared Reaction Buffer. • 2) Any required cofactors were delivered to the substrate solution above. • 3) Kinase was delivered into the substrate solution and gently mixed. • 4) Compounds were delivered in 100% DMSO into the kinase reaction mixture by Acoustic technology (Echo550; nanoliter range), followed by incubation for 20 min at room temp. • 5) ^33P-ATP was delivered into the reaction mixture to initiate the reaction. • 6) The mixture was incubated for 2 hours at room temperature. • 7) Kinase activity was detected by P81 filter-binding method.
(§4) Using the above functional assay, the inhibitory activity of the compounds for LATS1/2 versus AKT was characterized. The assays were typically run in a 10-point curve, in singlet, to produce a titration curve from which an IC50 value was obtained.
(§5) The reagents used are as follows: Base Reaction buffer; 20 mM Hepes (pH 7.5), 10 mM MgCl2, 1 mM EGTA, 0.01% Brij35, 0.02 mg/ml BSA, 0.1 mM Na3VO4, 2 mM DTT, 1% DMSO. Required cofactors were added individually to each kinase reaction.
(§6) Biochemical kinase inhibitory data was obtained for various exemplary compounds prepared according to the above in accordance with the protocols described in Examples 4 and 8. All biological activities are IC50, in nM.

AKT = AKT (Homo sapiens, UniProt P31749); assay: RBC HotSpot kinase assay (33P-ATP, P81 filter-binding), AKT; details: Table 28, biochemical kinase assay; read-out: AKT IC50
Sequence of AKT (P31749 whole entry): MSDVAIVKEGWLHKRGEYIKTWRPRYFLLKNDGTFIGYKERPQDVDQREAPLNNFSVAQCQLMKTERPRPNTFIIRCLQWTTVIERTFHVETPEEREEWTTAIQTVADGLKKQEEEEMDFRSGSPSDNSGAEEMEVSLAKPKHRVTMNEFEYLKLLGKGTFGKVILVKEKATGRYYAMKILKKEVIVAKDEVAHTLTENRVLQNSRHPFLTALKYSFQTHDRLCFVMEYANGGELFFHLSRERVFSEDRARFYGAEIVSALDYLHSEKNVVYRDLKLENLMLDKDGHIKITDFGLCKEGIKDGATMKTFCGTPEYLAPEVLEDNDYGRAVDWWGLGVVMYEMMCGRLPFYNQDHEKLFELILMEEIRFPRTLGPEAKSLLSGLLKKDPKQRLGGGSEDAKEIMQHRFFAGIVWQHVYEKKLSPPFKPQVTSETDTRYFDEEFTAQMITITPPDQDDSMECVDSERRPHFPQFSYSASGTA
Protocol: as §1, §2, §3, §4, §5, §6

LATS1 = target: T2, LATS1 (Homo sapiens, UniProt O95835); assay: RBC HotSpot kinase assay (33P-ATP, P81 filter-binding), LATS1; details: Table 28, biochemical kinase assay; read-out: LATS1 IC50
T2 sequence (O95835 1-1130): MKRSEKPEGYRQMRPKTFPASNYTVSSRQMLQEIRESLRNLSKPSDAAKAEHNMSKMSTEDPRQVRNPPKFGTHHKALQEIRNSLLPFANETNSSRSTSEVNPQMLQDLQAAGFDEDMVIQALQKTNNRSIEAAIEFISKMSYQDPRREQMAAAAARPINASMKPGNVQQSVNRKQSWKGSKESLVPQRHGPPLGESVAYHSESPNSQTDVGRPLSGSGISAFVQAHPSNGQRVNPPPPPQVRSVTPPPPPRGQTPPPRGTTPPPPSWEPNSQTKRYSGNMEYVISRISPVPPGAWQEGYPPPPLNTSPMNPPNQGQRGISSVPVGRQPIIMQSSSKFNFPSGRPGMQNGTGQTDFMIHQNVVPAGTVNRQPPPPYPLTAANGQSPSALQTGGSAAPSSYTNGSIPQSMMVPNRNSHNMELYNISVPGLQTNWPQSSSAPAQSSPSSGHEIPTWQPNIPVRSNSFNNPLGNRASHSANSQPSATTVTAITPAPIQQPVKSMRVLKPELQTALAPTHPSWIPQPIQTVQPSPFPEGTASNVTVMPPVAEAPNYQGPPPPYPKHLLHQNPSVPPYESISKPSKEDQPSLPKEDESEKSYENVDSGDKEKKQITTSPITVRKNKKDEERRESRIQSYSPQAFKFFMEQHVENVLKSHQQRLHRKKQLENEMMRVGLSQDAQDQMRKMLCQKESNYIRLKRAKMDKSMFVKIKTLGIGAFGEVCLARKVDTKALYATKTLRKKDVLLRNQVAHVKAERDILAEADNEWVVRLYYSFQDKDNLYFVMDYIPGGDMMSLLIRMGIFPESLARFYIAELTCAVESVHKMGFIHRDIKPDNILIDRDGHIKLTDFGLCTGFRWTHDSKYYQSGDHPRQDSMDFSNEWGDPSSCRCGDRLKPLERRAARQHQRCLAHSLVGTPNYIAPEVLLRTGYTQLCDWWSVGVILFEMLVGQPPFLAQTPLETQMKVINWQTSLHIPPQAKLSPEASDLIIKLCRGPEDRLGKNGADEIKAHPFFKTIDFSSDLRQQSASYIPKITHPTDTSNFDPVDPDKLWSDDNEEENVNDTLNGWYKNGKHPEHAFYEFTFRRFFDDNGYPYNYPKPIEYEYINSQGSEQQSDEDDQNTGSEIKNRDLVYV
Protocol: as §1, §2, §3, §4, §5, §6

Compound | IC50 (LATS2) [nM] | IC50 (AKT) [nM] | IC50 (LATS1) [nM]
C[C@@H]1CN(C2CCS(=O)(=O)CC2)C[C@H](C)C1(O)c1cnc(-c2ccnc3[nH]cc(F)c23)cc1F (stereo partly drawn) [Compound 35, 4-((3S,5R)-4-(4-fluoro-6-(3-fluoro-1H-pyrrolo[2,3-b]pyridin-4-yl)pyridin-3-yl)-4-hydroxy-3,5-dimethylpiperidin-1-yl)tetrahydro-2H-thiopyran 1,1-dioxide] | 63.4 | 2080 | 99.4
C[C@@H]1CN(C2COC2)C[C@H](C)C1(O)c1cnc(-c2ccnc3[nH]cc(F)c23)cc1F (stereo partly drawn) [Compound 36, (3S,5R)-4-(4-fluoro-6-(3-fluoro-1H-pyrrolo[2,3-b]pyridin-4-yl)pyridin-3-yl)-3,5-dimethyl-1-(oxetan-3-yl)piperidin-4-ol] | 79.6 | > 1000 | 98.5
C[C@@H]1CN(C)C[C@H](C)[C@@]1(O)c1ccc(-c2ccnc3[nH]ccc23)cc1 [Compound 38, (3R,4s,5S)-4-(4-(1H-pyrrolo[2,3-b]pyridin-4-yl)phenyl)-1,3,5-trimethylpiperidin-4-ol] | 27 | 181 | 28
C[C@@H]1CN(C)C[C@H](C)[C@@]1(O)c1ccc(-c2ccnc3[nH]ccc23)nc1 [Compound 40, (3R,4s,5S)-4-(6-(1H-pyrrolo[2,3-b]pyridin-4-yl)pyridin-3-yl)-1,3,5-trimethylpiperidin-4-ol] | 293 | 1540 | 99
Cc1cc(-c2ccnc3[nH]cc(F)c23)ncc1[C@@]1(O)[C@H](C)CN(C)C[C@@H]1C [Compound 44, (3R,4s,5S)-4-(6-(3-fluoro-1H-pyrrolo[2,3-b]pyridin-4-yl)-4-methylpyridin-3-yl)-1,3,5-trimethylpiperidin-4-ol] | 19.6 | 1610 | 8.9
CC(C)N1C[C@@H](C)[C@](O)(c2c(F)cc(-c3ccnc4[nH]cc(F)c34)cc2F)[C@@H](C)C1 [Compound 47, (3R,4s,5S)-4-(2,6-difluoro-4-(3-fluoro-1H-pyrrolo[2,3-b]pyridin-4-yl)phenyl)-1-isopropyl-3,5-dimethylpiperidin-4-ol] | 11.2 | 449 | 4.7
Cc1cc(-c2ccnc3[nH]cc(F)c23)cc(Cl)c1[C@@]1(O)[C@H](C)CN(C2COC2)C[C@@H]1C [Compound 49, (3R,4s,5S)-4-(2-chloro-4-(3-fluoro-1H-pyrrolo[2,3-b]pyridin-4-yl)-6-methylphenyl)-3,5-dimethyl-1-(oxetan-3-yl)piperidin-4-ol] | 428 | 125 | 697
Cc1nc(-c2ccnc3[nH]cc(F)c23)ccc1[C@@]1(O)[C@H](C)CN(C2CCC2)C[C@@H]1C [Compound 50, (3R,4s,5S)-1-cyclobutyl-4-(6-(3-fluoro-1H-pyrrolo[2,3-b]pyridin-4-yl)-2-methylpyridin-3-yl)-3,5-dimethylpiperidin-4-ol] | 24.7 | 906 | 6.1
Cc1cc(-c2ccnc3[nH]cc(F)c23)ncc1[C@@]1(O)[C@H](C)CN(Cc2ccncc2)C[C@@H]1C [Compound 52, (3R,4s,5S)-4-(6-(3-fluoro-1H-pyrrolo[2,3-b]pyridin-4-yl)-4-methylpyridin-3-yl)-3,5-dimethyl-1-(pyridin-4-ylmethyl)piperidin-4-ol] | 5080 | > 10000 | 2210

Now those with a lower IC50 (LATS2), led by results:

IC50 (LATS2) [nM] | IC50 (AKT) [nM] | IC50 (LATS1) [nM] | Compound
1.9 | 474 | 3.4 | Cc1cc(-c2ccnc3[nH]cc(F)c23)cc(F)c1C1(O)[C@H](C)CN(C2CCOCC2)C[C@@H]1C (stereo partly drawn) [Compound 33, (3S,5R)-4-(2-fluoro-4-(3-fluoro-1H-pyrrolo[2,3-b]pyridin-4-yl)-6-methylphenyl)-3,5-dimethyl-1-(tetrahydro-2H-pyran-4-yl)piperidin-4-ol]
8.3 | 908 | 14.3 | Cc1cc(-c2ccnc3[nH]cc(F)c23)cc(F)c1C1(O)[C@H](C)CN(C2CCOC2)C[C@@H]1C (stereo partly drawn) [Compound 34, (3S,5R)-4-(2-fluoro-4-(3-fluoro-1H-pyrrolo[2,3-b]pyridin-4-yl)-6-methylphenyl)-3,5-dimethyl-1-(tetrahydrofuran-3-yl)piperidin-4-ol]
8.6 | 477 | 10.1 | C[C@@H]1CN(C)C[C@H](C)[C@@]1(O)c1c(F)cc(-c2ccnc3[nH]cc(F)c23)cc1F [Compound 37, (3S,4s,5R)-4-(2,6-difluoro-4-(3-fluoro-1H-pyrrolo[2,3-b]pyridin-4-yl)phenyl)-1,3,5-trimethylpiperidin-4-ol]
6.7 | 159 | 9.7 | C[C@@H]1CN(C)C[C@H](C)[C@@]1(O)c1ccc(-c2ccnc3[nH]cc(F)c23)cc1F [Compound 42, (3R,4s,5S)-4-(2-fluoro-4-(3-fluoro-1H-pyrrolo[2,3-b]pyridin-4-yl)phenyl)-1,3,5-trimethylpiperidin-4-ol]
2.9 | 63.5 | 3.2 | Cc1cc(-c2ccnc3[nH]cc(F)c23)ccc1[C@@]1(O)[C@H](C)CN(C)C[C@@H]1C [Compound 43, (3R,4s,5S)-4-(4-(3-fluoro-1H-pyrrolo[2,3-b]pyridin-4-yl)-2-methylphenyl)-1,3,5-trimethylpiperidin-4-ol]
